These results are taken from patent US10155047B2, “Polymers having therapeutically active agents conjugated thereto, processes of preparing same and uses thereof” (Ramot at Tel-Aviv University Ltd., priority 2012, dated 2018).

One assay deals with HUVECs. Nature of the assay: HUVEC proliferation assay (MTT, 72 hours). The class given is cell-based, human. Here is the method: Human umbilical vein endothelial cells (HUVECs) were isolated from umbilical cords and were cultured in EGM-2 media.
(§1) After incubation cell viability was determined by MTT assay.
(§2) For evaluating anti-proliferative activity of a combination of PTX and DOX, cells were treated with varying concentrations of DOX with a set concentration of PTX or varying concentrations of PTX with a set concentration of DOX.
Same procedure was followed for other drugs and combination treatments.
(§3) In an exemplary procedure, selected inhibition concentration values (e.g., IC40, IC60 and IC80) of PTX, DOX and combinations thereof from a respective cell proliferation assay were collected. The selected inhibition concentration values of DOX and PTX were marked on X and Y axes respectively and a line which represents additive effect was drawn between each inhibitory concentration (IC). The combination index (CI) of each treatment was calculated according to the classic isobologram equation CI=[(D)1/(Dx)1]+[(D)2/(Dx)2].
The effect of PTX at various concentrations (0.0001, 0.001, 0.01, 0.1, 1, 10, 100, 1000, and 10,000 nM), and of doxorubicin at various concentrations (0.001, 0.001, 0.01, 0.1, 1, 10, 100, 1000, 10,000, 100,000 nM) on the proliferation of HUVEC p3 cells was tested. The obtained data is presented in FIG. 1A for PTX and in FIG. 1B for DOX.
For evaluating the effect of the combination treatment, 0.1 or 1 nM DOX with various concentrations of PTX and 0.1 or 1 nM PTX with various concentrations of DOX were tested.
The effect of PTX at various concentrations, TNP-470 at various concentrations and of various combinations of a set concentration of PTX and variable concentrations of TNP-470 and a set concentration of TNP-470 and variable concentrations of PTX, on proliferation of HUVECs, was tested. Similar assays were performed in the presence of 10,000 nM alendronate. The obtained data is presented in FIG. 7A (no alendronate) and in FIG. 7B (in the presence of alendronate).
The effect of the PGA-PTX-DOX conjugate (Route 1, see, FIG. 18) on HUVECs proliferation was tested and compared to the free drugs, each alone and in combination.

The test system of assay [1] is MDA-MB-231 cells. The experiment in a line: MDA-MB-231 cell proliferation assay (72 hours). The following applies: for IC20 / IC 40 / IC 60: MDA-MB-231, single drug. The class given is cell-based, human. Here is the method:
Human MDA-MB-231 cells were purchased from American Tissue Culture Collection (ATCC), and were cultured in DMEM supplemented with 10% FBS, 100 μg/ml penicillin, 100 U/ml streptomycin, 12.5 U/ml nystatin. All Cells were grown at 37° C., 5% CO2.
(§4) In an exemplary procedure, cells were plated onto 96-well plates in appropriate complete medium for each cell line as described above, and incubated for 24 hours (37° C.; 5% CO2). On the following day cells were treated with e.g., paclitaxel at various concentrations (e.g., 0.0001, 0.001, 0.01, 0.1, 1, 10, 100, 1000, 10,000 nM) or, e.g., doxorubicin at various concentrations (e.g., 0.001, 0.001, 0.01, 0.1, 1, 10, 100, 1000, 10,000, 100,000 nM) for 72 hours. After incubation cell viability was determined by MTT assay.
as §2
Selected inhibition concentration values (e.g., IC50, IC40, IC60 and IC80 values (growth inhibition by 50, 40, 60 and 80% respectively) were derived from the obtained growth charts.
as §3
The effect of PTX, DOX and combinations thereof on the proliferation of human MDA-MB-231 cells was tested.
FIG. 6A presents the results obtained for PTX and DOX, each alone, at various concentrations within a range of 0.01-10000 nM, and for various concentrations of PTX with 20 nM DOX, and for various concentrations of DOX with 1 nM PTX. […] Data represents mean±SD.
In order to evaluate the combination treatment effect, data from combination treatment results were collected, analyzed and calculated according to CI equations. Combination treatments I (PTX+DOX 20 nM) and II (DOX+PTX 1 nM) inhibited MDA-MB-231 cells proliferation of IC 20, 40, 60 at 0.8, 4, 25 and 4, 150, 700 nM respectively.
The activity of a PGA-PTX-DOX conjugate (Route 2, see, FIG. 19D) was examined in vitro on proliferation of MDA-MB-231 human breast cancer cells. Cells were incubated with the conjugates PGA-PTX-DOX, PGA-PTX, PGA-DOX and combination of PGA-PTX and PGA-DOX (in the same ratio as on the PGA-PTX-DOX conjugate), the free drugs PTX, DOX and their combination (in the same ratio as on the PGA-PTX-DOX conjugate) and with PGA for 72 hours.

For assay [2], the system named is ES-2 ovarian carcinoma cells. The experiment in a line: ES-2 cell proliferation assay (72 hours). The class given is cell-based, human. The protocol: ES-2 human ovarian carcinoma cells were purchased from the ATCC.
as §1, §3
The effect of DOX and PTX combinations on viability of ES2 and Saos2 cells was examined. Cells were treated with PTX alone, DOX alone, varying concentrations of DOX with a set concentration of PTX (10 or 50 nM for ES2, 1 nM for Saos2) or varying concentrations of PTX with a set concentration of DOX (10 or 50 nM). IC20, IC40 and IC60 values (growth inhibition by 20, 40 and 60% respectively) were derived from the growth charts and combination index (CI) values were calculated.
The activity of PGA-PTX-DOX conjugate (Route 1, see, FIG. 18) and of PGA-PTX-DOX conjugate (Route 2, see, FIG. 19D) was examined in vitro on proliferation of ES-2 ovarian carcinoma cells.
(§5) The effect of DOX and PTX treatments on proliferation of ES2 and SK N MC cells after sorting to NCAM+/− and/or on unsorted cells was examined, to test whether NCAM+ cells are more resistant to chemotherapeutic drugs.

Another assay has as its system SK N MC cells. The experiment in a line: SK N MC cell proliferation assay after sorting to NCAM+/-. The format is cell-based. The protocol:
as §4
Cells were harvested and labeled as described above, and resuspended in the appropriate cell culture medium (according to cell type) with 5% FBS. Cells were filtrated with 100 μm cell strainer before sorting. Sorted cells were collected into tubes containing complete medium with 0.5 mg/ml gentamycin (Biological Industries, Israel). All work was done in sterile conditions.
as §5

Assay [3] concerns MDA-MB-231 cells. The experiment in a line: Internalization and intracellular release of DOX, confocal microscopy. The class given is cell-based, human. The following applies: 400 nM DOX-equivalent. Here is the method: Internalization and intracellular release of DOX from the conjugates was evaluated by confocal microscopy (Leica SP5). MDA-MB-231 cells were incubated with free DOX and DOX-containing conjugates (PGA-DOX, PGA-PTX-DOX) at 400 nM equivalent concentrations for 20 minutes, 2, 6 or 24 hours. Following incubation, cells were washed, fixed with 4% PFA and mounted on glass slides using Prolong® Gold antifade reagent with DAPI (4′-6-Diamidino-2-phenylindole) (Invitrogen) for nucleus. DOX was excited at 488 nm and its emission was recorded at 550-700 nm.

The subject of assay [4] is NCAM-expressing Mel-526 human melanoma cells. Nature of the assay: Binding to NCAM-expressing Mel-526 cells. The format is cell-based.
In another assay the test system is Saos-2 cells. Nature of the assay: NTP binding to Saos2 cells (confocal microscopy). To be noted: fluorescently labeled peptides. The format is cell-based, human. The protocol:
Cell specificity and uptake of the fluorescently labeled peptides was monitored utilizing a Zeiss Meta LSM 510 confocal imaging system. Cells were plated on glass slides and incubated overnight. The following day cells were incubated with 100 μM of CF-NTP or CF-scrambled peptide for 30 minutes at 37° C., washed several times with PBS, fixated with 4% paraformaldehyde, stained with Hoechst stain and mounted on slides. In order to examine intracellular trafficking of the peptide, cells were incubated with the peptides in serum free medium, washed several times with cold PBS and incubated with […] AlexaFluor 594 human transferrin for 1 h at 37° C. Cells were washed several times with PBS, fixated with 4% PFA, stained with Hoechst stain and mounted on slides.
Binding of NTP (SEQ ID NO:1) to Saos-2 cells, compared to binding of sNTP (SEQ ID NO:2), was examined by confocal microscopy. FITC-labeled targeting peptides were used. […] In experiments with transferrin, peptide was seen as intracellular aggregates or vesicles, though not colocalized with transferrin.

The subject of a further assay is ES2 cells. The experiment in a line: Binding to ES2 cells (FACS). The class given is cell-based, human. Here is the method: Cells were washed with PBS, harvested using a cell scraper and labeled by incubation with APC-conjugated CD-56 antibody (Biolegend) for 45 min at 4° C. in the dark. Cells were washed three times with PBS and filtrated with 100 μm cell strainer (BD Falcon).
Binding of C3 (SEQ ID NO:3) to ES2 cells, and competition of binding of the NCAM-specific antibody APC-conjugated anti-human CD56 (NCAM) (BioLegend) and bFGF was examined by FACS.
PGA and PGA-C3 were labeled with FITC on the N-terminal of the PGA chain. Binding to ES-2 cells was examined by FACS.

Ends that are not written are not given here. PGA = not defined here

With `CC(=O)O[C@H]1C(=O)[C@@]2(C)[C@H]([C@H](OC(=O)c3ccccc3)[C@]3(O)C[C@H](OC(=O)[C@H](O)[C@@H](NC(=O)c4ccccc4)c4ccccc4)C(C)=C1C3(C)C)[C@]1(OC(C)=O)CO[C@@H]1C[C@@H]2O` [PTX, Paclitaxel], the half-inhibitory concentration (IC50) – broadly, the concentration that gives 50% inhibition – was 1 nM in the assay on HUVECs (Homo sapiens, HUVEC, HUVEC p3, PGA-PTX-DOX is the Route 1 conjugate (FIG. 18)); 7 nM in the assay with HUVECs (Homo sapiens, HUVEC, HUVEC proliferation, drug alone or varied with a set concentration of the other drug); 2 nM with MDA-MB-231 cells [1] (Homo sapiens, MDA-MB-231, 72 hours, PTX- and DOX-equivalent concentrations, Route 2 conjugate (FIG. 19D)); 70 nM in assay [2] (Homo sapiens, ES-2, ES2 cells sorted NCAM+); 90 nM in assay [2] (Homo sapiens, ES-2, ES2 cells sorted NCAM−); 70 nM in assay [2] (Homo sapiens, ES-2, ES2 cells unsorted). The IC50 was determined as 6 nM in assay [2] (Homo sapiens, Ovarian carcinoma cell, 72 h, ES-2, 72 hours, conjugates of Route 2 (FIG. 19D), three separate experiments) and 45 nM in the assay with SK N MC cells (Homo sapiens, SK N MC cells unsorted). The IC20 (as a rule, the point of the concentration-response curve where the effect stands at 20%) with MDA-MB-231 cells [1] (Homo sapiens) worked out at 2.5 nM. Also, the “IC 40” value in the assay on MDA-MB-231 cells [1] is given as 7 nM. In the assay with MDA-MB-231 cells [1], the “IC 60” value is 100 nM.

Turning to `COc1cccc2c1C(=O)c1c(O)c3c(c(O)c1C2=O)C[C@@](O)(C(=O)CO)C[C@@H]3O[C@H]1C[C@H](N)[C@H](O)[C@H](C)O1` [DOX, doxorubicin], the IC50 was 7 nM with HUVECs (HUVEC p3, PGA-PTX-DOX is the Route 1 conjugate (FIG. 18)); 40 nM in the assay on HUVECs (HUVEC proliferation, drug alone or varied with a set concentration of the other drug); 300 nM in assay [2] (ES2 cells sorted NCAM+); 150 nM in assay [2] (ES2 cells sorted NCAM−); 250 nM in assay [2] (ES2 cells unsorted); 25 nM in assay [2] (ES-2, 72 hours, conjugates of Route 2 (FIG. 19D), three separate experiments). Moreover, the IC50 in the assay with SK N MC cells (SK N MC cells sorted NCAM+) was determined as 90 nM; with SK N MC cells (SK N MC cells sorted NCAM−), 40 nM; in the assay on SK N MC cells (SK N MC cells unsorted) it was 50 nM. For the same compound, the IC20 with MDA-MB-231 cells [1] worked out at 60 nM. In addition, the “IC 40” value in the assay on MDA-MB-231 cells [1] is given as 250 nM. The “IC 60” value in the assay with MDA-MB-231 cells [1] is 950 nM. Besides, in the assay on MDA-MB-231 cells [3], the cell internalization entry is given as “rapidly internalized in the cells”. In addition, in the assay with MDA-MB-231 cells [3], the “incubation time after which DOX is accumulated in the nucleus” value came to 6 h.

Regarding GASKKPAANIKA [C3ala, control peptide], the binding in assay [4] is 20%.

As for GESDDEND [scrambled peptide], the binding to cells entry in the assay with Saos-2 cells is “does not”.

Consider “CF-labeled C3: C3 (SEQ ID NO:3) labeled at the N-terminal with 5(6)-carboxyfluorescein ({5(6)‑carboxyfluorescein}-GASKKPKRNIKA)”, for which, in the assay on ES2 cells (ES2, CF-labeled peptide alone), the binding to cells result is listed as “bound at levels much higher than NCAM expression”. Besides, in the assay on ES2 cells (ES2, competition), the “binding when incubated with NCAM antibody or bFGF” value was “its binding decreased”.

As for GDDSDEEN [NTP, NCAM-targeting peptide], in the assay on Saos-2 cells, the binding to cells entry is given as “binds to the cells”.

Turning to “PGA-C3: PGA conjugated to C3 peptide (SEQ ID NO:3) through the N-terminal amine ({PGA}-GASKKPKRNIKA; reading uncertain)”, the binding to cells result with ES2 cells (ES-2, FITC-labeled polymers) is “bound more strongly than non-targeted PGA and similarly to free C3 peptide”.

Consider “GASKKPKRNIKA [C3, NCAM targeting peptide C3 with added N-terminal glycine]”, for which the binding in assay [4] amounted to 50%.
